Test results taken from patent publication US8894993B2, “Mitochondria-targeted antioxidants” (Natreon Inc., priority 2006, dated 2014).

Key:
[1] = Stability of reduced CoQ10 (CoQH2) by 3,8-(OH)2-DBP at different pH, HPLC; assay type: physicochemical
[2] = tested on: Superoxide dismutase (SOD) activity in liver; assay: Superoxide dismutase activity in liver of mice after restraint stress; assay type: in vivo, Swiss albino mice; settings: 25 mg/Kg p.o. 7 days, control 0.6
Description: (§1) Swiss albino mice (20±2 g) were fed orally with—(a) 3-OH-DBP and (b) 3,8-(OH)2-DBP (each 25 mg/Kg b.w. per day, for 7 days). In case of the controls, only vehicle (0.8% carboxymethyl cellulose in water) was administered for seven days of the experiment. All the animals of all the groups were subjected to restraint stress (for 60 minutes) on the seventh day of the experiment, 2 hours after drug administration, according to a published method [Figueiredo, H. F., Bodie, B. L., Tauchi, M., Dolgas, C. M. and Herman, J. P. 2003. Endocrinology, 144, 5249-5258]. The model was selected in the present experiment, because restraint stress is a widely used model of acute oxidative stress. Immediately after being exposed to stress, the animals were sacrificed, blood was collected for analysis by HPLC of ATP and related nucleotides [Smolenska, Z., Kaznowska, Z., Zarowny, D., Simmonds, H. A. and Smolenski, R. T. 1999. […] AEC (adenylate energy charge) was calculated according to the method of Atkinson and Walton [Atkinson D E & Walton G M, Adenosine triphosphate conservation in metabolic regulation, J Biol Chem, 242 (1967) 3239] and TAN (total adenine nucleotides) was calculated according to an established method [Spencer M K & Katz A, Role of glycogen in control of glycolysis and IMP formation in human muscle during exercise, Am J Physiol, 260 (1991) E859]. […]

[3] = tested on: Blood levels of ATP and energy related indices; assay: Blood ATP and energy related indices in mice after forced swimming stress; assay type: in vivo, Swiss albino mice
Description: Swiss albino mice (20±2 g) were fed orally with—(a) 3,8-(OH)2-DBP and (b) 3-OH-DBP (each 25 mg/Kg b.w.), per day, for 7 days. In case of the controls, only vehicle (0.8% carboxymethyl cellulose in water) was administered for seven days of the experiment. The animals were subjected to ‘forced swimming’ for 30 minutes on the 7th day of the experiment [Pliakas, A. M., Carlson, R. R., Neve, R. L., Konradi, C., Nestler, E. J. and Carlezon, W. A. 2001. J. Neurosci., 21(18), 7397-7403]. Immediately after the swimming, blood was collected from all the animals for analysis of ATP and related nucleotides by HPLC [Smolenska, Z., Kaznowska, Z., Zarowny, D., Simmonds, H. A. and Smolenski, R. T. 1999. Rheumatology, 38, 997-1002; Komarova, S. V., Mosharov, E. V., Vitvitsky, V. M. and Ataullakhanov, F. I. 1999. Blood Cell Mol. Dis., 25(13), 170-179; Marquardt, D. L., Gruber, H. E. and Wasserman, S. I. 1984. Proc. Natl. Acad. Sci., 81, 6192-6196]. AEC (adenylate energy charge) was calculated according to the method of Atkinson and Walton [Atkinson D E & Walton G M, Adenosine triphosphate conservation in metabolic regulation, J Biol Chem, 242 (1967) 3239] and TAN (total adenine nucleotides) was calculated according to an established method [Spencer M K & Katz A, Role of glycogen in control of glycolysis and IMP formation in human muscle during exercise, Am J Physiol, 260 (1991) E859].

[4] = tested on: Catalase activity in liver; assay: Catalase activity in liver of mice after restraint stress; assay type: in vivo, Swiss albino mice; settings: 25 mg/Kg p.o. 7 days, control 3.9
Description: as §1

[5] = DBP products in mice liver mitochondria before and after DBPs treatment, HPTLC; assay type: in vivo, Swiss Albino mice; settings: one hour after i.p. 4:1 mixture of 3,8-(OH)2-DBP and 3-OH-DBP 20 mg/Kg
Description: Mitochondria were isolated from heart and liver of chicken, goat and mice following a published procedure (Liu Y, Deng F, Zhao R and Qu S, Chemosphere, 40(8):851-854, 2000). […] The tissue was cut into small pieces, homogenized and centrifuged at 900 g for one minute. The supernatant was again centrifuged twice, for 20 minutes each time at 900 g. The sediment at each step was discarded. The clear supernatant was centrifuged twice at 12,000 g, 20 minutes each time, to form pellets of a mitochondria-enriched fraction. The fraction was divided into two parts. One part was resuspended in a measured volume of distilled water and sonicated (10 min×2). […] The two extracts were subjected to comprehensive HPTLC and HPLC analyses for detection and quantitation of DBPs and their equivalents. […] One hour after administration the animals were sacrificed and mitochondria from liver were isolated and analyzed as described for Example 6. […] Mobile Phase—Chloroform:Methanol 90:10 Sample application—CAMAG LINOMAT 5 (Automated applicator) Detection—240 nm (CAMAG TLC SCANNER 3) 3-OH-DBP and 3,8-(OH)2-DBP (and their conjugates) were detected in mitochondria of control mice by HPTLC. Administration of DBPs to the animals increased the amount of DBPs and its products in mitochondria as detected by using authentic markers of the two DBPs (Table 2).

In the case of `O=c1oc2cc(O)ccc2c2ccc(O)cc12` [3,8-(OH)2-DBP, 3,8-dihydroxydibenzo-α-pyrone], the “Regenerated CoQ10 in presence of 3,8-(OH)2-DBP” value ([1]; autoxidation of CoQH2, pH 8, 80 min) is reported as 151.28 µg/mL, the “Regenerated CoQ10 in presence of 3,8-(OH)2-DBP” value ([1]; autoxidation of CoQH2, pH 8, 100 min) is reported as 202.31 µg/mL and the “SOD activity in liver” value [2] is reported as 0.98 U/gm tissue. For the same compound, the “content of ATP, AEC values and ATP/ADP ratio (in blood), in words” value ([3]; albino mice engaged in forced swimming) was “significant improvement only in some parameters”, the ATP ([3]; blood, forced swimming, 25 mg/Kg p.o. 7 days, mean ± SEM of 6, control 0.60 ± 0.01) was 0.68 ± 0.03 µM and the TAN ([3]; blood, forced swimming, 25 mg/Kg p.o. 7 days, mean ± SEM of 6, control 0.79 ± 0.01) was 0.86 ± 0.03 µM. The AEC ([3]; blood, forced swimming, 25 mg/Kg p.o. 7 days, mean ± SEM of 6, control 0.86 ± 0.003) was 0.88 ± 0.003, the ATP/ADP ratio ([3]; blood, forced swimming, 25 mg/Kg p.o. 7 days, mean ± SEM of 6, control 3.84 ± 0.09) was 4.30 ± 0.12 and the “Catalase activity in liver” value [4] was 3.4 U/mg tissue. For the same compound, the “Amount in mitochondria after DBP treatment” value [5] was 2.3 nmol/gm wet wt.
